Biological target: Carbonic anhydrase 9 (Homo sapiens, UniProt Q16790)
Test: Inhibition of human transmembrane carbonic anhydrase 9 preincubated for 15 mins by stopped flow CO2 hydration assay

Compound | Ki [nM]
NS(=O)(=O)c1ccc(Nc2nc(N3CCOCC3)nc(N3CCOCC3)n2)cc1 | 34.1
Cc1cccc(Nc2nc(Nc3ccc(S(N)(=O)=O)cc3)nc(N3CCOCC3)n2)c1 | 10.2
CC(C)(C)Nc1nc(Nc2ccc(S(N)(=O)=O)cc2)nc(NC(C)(C)C)n1 | 19.3
CN(CCO)c1nc(Nc2ccc(S(N)(=O)=O)cc2)nc(N(C)CCO)n1 | 5.9
NCCCNc1nc(NCCCN)nc(Nc2ccc(S(N)(=O)=O)cc2)n1 | 18.3
NCCCNc1nc(Cl)nc(Nc2ccc(S(N)(=O)=O)cc2)n1 | 21.4
NS(=O)(=O)c1ccc(Nc2nc(Cl)nc(Nc3ccc(F)c(Cl)c3)n2)cc1 | 21.2

Next, values leading:

Ki [nM] | Compound
2.4 | Nc1nc(N)nc(Nc2ccc(S(N)(=O)=O)cc2)n1
10.7 | Nc1cccnc1Nc1ccc(S(N)(=O)=O)cc1
8.5 | COc1ccc(Nc2ccc(S(N)(=O)=O)cc2)nn1
5.9 | NS(=O)(=O)c1ccc(Nc2nc(Cl)nc(Nc3ccccc3)n2)cc1
1.2 | CN(CCO)c1nc(Cl)nc(Nc2ccc(S(N)(=O)=O)cc2)n1

— ChEMBL document CHEMBL3120137, “Substituted benzene sulfonamides incorporating 1,3,5-triazinyl moieties potently inhibit human carbonic anhydrases II, IX and XII” (Bioorg Med Chem Lett, 2014)
